Results taken from the NIST ThermoML archive (doi:10.1016/j.jct.2009.06.011).
Numbers after ± are expanded uncertainties.

Assay: activity coefficient (dimensionless); of the first substance listed, at infinite dilution; xn = mol fraction of the nth substance listed
Details: 101 kPa, Liquid, Chromatography, x1 = 0

| Compound | activity coefficient (318.15 K) | activity coefficient (328.15 K) | activity coefficient (338.15 K) | activity coefficient (348.15 K) | activity coefficient (358.15 K) | activity coefficient (368.15 K) | activity coefficient (298.15 K) | activity coefficient (308.15 K) |
| --- | --- | --- | --- | --- | --- | --- | --- | --- |
| CCCCO [butan-1-ol] + CCCC[n+]1ccc(C)cc1.O=S(=O)([N-]S(=O)(=O)C(F)(F)F)C(F)(F)F | 2.26 ± 0.15 | 2.05 ± 0.14 | 1.87 ± 0.13 | 1.71 ± 0.11 | 1.57 ± 0.1 | 1.46 ± 0.1 | – | – |
| CO [methanol] + CCCC[n+]1ccc(C)cc1.O=S(=O)([N-]S(=O)(=O)C(F)(F)F)C(F)(F)F | 1.27 ± 0.08 | 1.17 ± 0.07 | 1.08 ± 0.07 | 1 ± 0.06 | 0.935 ± 0.059 | 0.876 ± 0.056 | 1.53 ± 0.1 | 1.39 ± 0.09 |
| CCCCCCCC [octane] + CCCC[n+]1ccc(C)cc1.O=S(=O)([N-]S(=O)(=O)C(F)(F)F)C(F)(F)F | 23.7 ± 1.6 | 22.1 ± 1.5 | 20.7 ± 1.4 | 19.3 ± 1.3 | 18.1 ± 1.2 | 17.2 ± 1.2 | 27.9 ± 1.9 | 25.8 ± 1.8 |
| COC(C)(C)C [2-methoxy-2-methylpropane] + CCCC[n+]1ccc(C)cc1.O=S(=O)([N-]S(=O)(=O)C(F)(F)F)C(F)(F)F | 2.03 ± 0.14 | 2.06 ± 0.14 | 2.08 ± 0.14 | 2.1 ± 0.14 | 2.12 ± 0.14 | 2.15 ± 0.15 | 1.97 ± 0.13 | 2 ± 0.14 |
| C=CCCCCCC [oct-1-ene] + CCCC[n+]1ccc(C)cc1.O=S(=O)([N-]S(=O)(=O)C(F)(F)F)C(F)(F)F | 12.4 ± 0.8 | 11.8 ± 0.8 | 11.3 ± 0.8 | 10.9 ± 0.7 | 10.4 ± 0.7 | 10.1 ± 0.7 | 13.8 ± 0.9 | 13 ± 0.9 |
| Cc1ccccc1C [1,2-dimethylbenzene] + CCCC[n+]1ccc(C)cc1.O=S(=O)([N-]S(=O)(=O)C(F)(F)F)C(F)(F)F | 1.21 ± 0.08 | 1.24 ± 0.08 | 1.27 ± 0.08 | 1.3 ± 0.08 | 1.32 ± 0.09 | 1.35 ± 0.09 | – | – |
| CCCCCCC [heptane] + CCCC[n+]1ccc(C)cc1.O=S(=O)([N-]S(=O)(=O)C(F)(F)F)C(F)(F)F | 17.7 ± 1.2 | 16.6 ± 1.1 | 15.6 ± 1.1 | 14.7 ± 1 | 13.9 ± 1 | 13.2 ± 0.9 | 20.4 ± 1.4 | 18.9 ± 1.3 |
| CCCO [propan-1-ol] + CCCC[n+]1ccc(C)cc1.O=S(=O)([N-]S(=O)(=O)C(F)(F)F)C(F)(F)F | 1.84 ± 0.12 | 1.67 ± 0.11 | 1.53 ± 0.1 | 1.41 ± 0.09 | 1.3 ± 0.08 | 1.2 ± 0.08 | 2.28 ± 0.16 | 2.04 ± 0.14 |
| c1ccsc1 [thiophene] + CCCC[n+]1ccc(C)cc1.O=S(=O)([N-]S(=O)(=O)C(F)(F)F)C(F)(F)F | 0.637 ± 0.044 | 0.649 ± 0.044 | 0.661 ± 0.045 | 0.672 ± 0.046 | 0.683 ± 0.046 | 0.694 ± 0.047 | 0.609 ± 0.043 | 0.624 ± 0.043 |
| Cc1ccc(C)cc1 [1,4-dimethylbenzene] + CCCC[n+]1ccc(C)cc1.O=S(=O)([N-]S(=O)(=O)C(F)(F)F)C(F)(F)F | 1.35 ± 0.09 | 1.38 ± 0.09 | 1.42 ± 0.09 | 1.45 ± 0.1 | 1.48 ± 0.1 | 1.51 ± 0.1 | – | – |
| CCO [ethanol] + CCCC[n+]1ccc(C)cc1.O=S(=O)([N-]S(=O)(=O)C(F)(F)F)C(F)(F)F | 1.56 ± 0.1 | 1.43 ± 0.09 | 1.31 ± 0.09 | 1.21 ± 0.08 | 1.12 ± 0.07 | 1.04 ± 0.07 | 1.91 ± 0.13 | 1.72 ± 0.12 |
| Cc1ccccc1 [toluene] + CCCC[n+]1ccc(C)cc1.O=S(=O)([N-]S(=O)(=O)C(F)(F)F)C(F)(F)F | 0.973 ± 0.061 | 1 ± 0.063 | 1.02 ± 0.064 | 1.05 ± 0.066 | 1.07 ± 0.067 | 1.09 ± 0.069 | – | – |
| C1CCCCCCC1 [cyclooctane] + CCCC[n+]1ccc(C)cc1.O=S(=O)([N-]S(=O)(=O)C(F)(F)F)C(F)(F)F | 12 ± 0.8 | 11.2 ± 0.8 | 10.4 ± 0.7 | 9.81 ± 0.67 | 9.26 ± 0.63 | 8.74 ± 0.6 | 13.9 ± 1 | 12.9 ± 0.9 |
| CCCCCCCCC [nonane] + CCCC[n+]1ccc(C)cc1.O=S(=O)([N-]S(=O)(=O)C(F)(F)F)C(F)(F)F | 32.3 ± 2.2 | 29.8 ± 2 | 27.6 ± 1.9 | 25.6 ± 1.8 | 23.8 ± 1.6 | 22 ± 1.5 | 38.9 ± 2.7 | 35.5 ± 2.4 |
| C1CCCCCC1 [cycloheptane] + CCCC[n+]1ccc(C)cc1.O=S(=O)([N-]S(=O)(=O)C(F)(F)F)C(F)(F)F | 9.45 ± 0.64 | 8.9 ± 0.61 | 8.39 ± 0.57 | 7.9 ± 0.54 | 7.46 ± 0.51 | 7.14 ± 0.49 | 10.9 ± 0.7 | 10.1 ± 0.7 |
| CCCCC [pentane] + CCCC[n+]1ccc(C)cc1.O=S(=O)([N-]S(=O)(=O)C(F)(F)F)C(F)(F)F | 11.2 ± 0.8 | 10.5 ± 0.7 | 9.89 ± 0.67 | 9.37 ± 0.64 | 8.88 ± 0.61 | 8.47 ± 0.58 | 12.9 ± 0.9 | 12 ± 0.8 |
| O [water] + CCCC[n+]1ccc(C)cc1.O=S(=O)([N-]S(=O)(=O)C(F)(F)F)C(F)(F)F | 3.65 ± 0.25 | 3.21 ± 0.22 | 2.85 ± 0.19 | 2.54 ± 0.17 | 2.26 ± 0.15 | 2.05 ± 0.14 | 4.86 ± 0.33 | 4.2 ± 0.29 |
| C=CCCCCC [1-heptene] + CCCC[n+]1ccc(C)cc1.O=S(=O)([N-]S(=O)(=O)C(F)(F)F)C(F)(F)F | 9.17 ± 0.63 | 8.82 ± 0.6 | 8.51 ± 0.58 | 8.24 ± 0.56 | 7.99 ± 0.54 | 7.76 ± 0.53 | 9.97 ± 0.68 | 9.56 ± 0.65 |
| CCc1ccccc1 [ethylbenzene] + CCCC[n+]1ccc(C)cc1.O=S(=O)([N-]S(=O)(=O)C(F)(F)F)C(F)(F)F | 1.45 ± 0.1 | 1.48 ± 0.1 | 1.5 ± 0.1 | 1.52 ± 0.1 | 1.54 ± 0.1 | 1.56 ± 0.1 | – | – |
| CCOCC [diethyl ether] + CCCC[n+]1ccc(C)cc1.O=S(=O)([N-]S(=O)(=O)C(F)(F)F)C(F)(F)F | 2.08 ± 0.14 | 2.08 ± 0.14 | 2.08 ± 0.14 | 2.09 ± 0.14 | 2.09 ± 0.14 | 2.09 ± 0.14 | 2.07 ± 0.14 | 2.08 ± 0.14 |
| CCCCCC [hexane] + CCCC[n+]1ccc(C)cc1.O=S(=O)([N-]S(=O)(=O)C(F)(F)F)C(F)(F)F | 13.5 ± 0.9 | 12.7 ± 0.9 | 12 ± 0.8 | 11.4 ± 0.8 | 10.8 ± 0.7 | 10.3 ± 0.7 | 15.4 ± 1.1 | 14.5 ± 1 |
| C=CCCCC [hex-1-ene] + CCCC[n+]1ccc(C)cc1.O=S(=O)([N-]S(=O)(=O)C(F)(F)F)C(F)(F)F | 6.82 ± 0.47 | 6.58 ± 0.45 | 6.37 ± 0.43 | 6.17 ± 0.42 | 5.99 ± 0.41 | 5.82 ± 0.4 | 7.4 ± 0.5 | 7.11 ± 0.48 |
| Cc1cccc(C)c1 [1,3-dimethylbenzene] + CCCC[n+]1ccc(C)cc1.O=S(=O)([N-]S(=O)(=O)C(F)(F)F)C(F)(F)F | 1.35 ± 0.09 | 1.38 ± 0.09 | 1.42 ± 0.09 | 1.45 ± 0.1 | 1.48 ± 0.1 | 1.51 ± 0.1 | – | – |
| C1CCCC1 [cyclopentane] + CCCC[n+]1ccc(C)cc1.O=S(=O)([N-]S(=O)(=O)C(F)(F)F)C(F)(F)F | 5.89 ± 0.4 | 5.59 ± 0.38 | 5.28 ± 0.36 | 5.03 ± 0.34 | 4.81 ± 0.33 | 4.6 ± 0.31 | 6.65 ± 0.45 | 6.25 ± 0.43 |
| C=CCCC [1-pentene] + CCCC[n+]1ccc(C)cc1.O=S(=O)([N-]S(=O)(=O)C(F)(F)F)C(F)(F)F | 5.42 ± 0.37 | 5.24 ± 0.36 | 5.07 ± 0.35 | 4.93 ± 0.34 | 4.8 ± 0.33 | 4.68 ± 0.32 | 5.81 ± 0.4 | 5.6 ± 0.38 |
| CC(C)=O [acetone] + CCCC[n+]1ccc(C)cc1.O=S(=O)([N-]S(=O)(=O)C(F)(F)F)C(F)(F)F | 0.415 ± 0.035 | 0.423 ± 0.035 | 0.43 ± 0.035 | 0.438 ± 0.035 | 0.445 ± 0.036 | 0.451 ± 0.036 | 0.398 ± 0.034 | 0.406 ± 0.034 |
| c1ccccc1 [benzene] + CCCC[n+]1ccc(C)cc1.O=S(=O)([N-]S(=O)(=O)C(F)(F)F)C(F)(F)F | 0.719 ± 0.048 | 0.735 ± 0.049 | 0.75 ± 0.049 | 0.767 ± 0.05 | 0.781 ± 0.051 | 0.795 ± 0.052 | 0.683 ± 0.046 | 0.702 ± 0.047 |
